The values below are quoted from earlier work in patent publication EP1935412A2, “Pharmaceutical composition containing 5-chloro-1-[1-[3-(2-oxo-2,3-dihydro-1H-benzimidazol-1-yl)propyl]piperidine-4-yl]-1,3-dihydro-2H-benzimidazol-2-one and method of preparing same” (GALENIX DEVELOPPEMENT, priority 2006, dated 2008).

For this data set the following is noted: dans l'eau.

`O=c1[nH]c2ccccc2n1CCCN1CCC(n2c(=O)[nH]c3cc(Cl)ccc32)CC1` [dompéridone, 5-chloro-1-[1-[3-(2-oxo-2,3-dihydro-1H-benzimidazol-1-yl)propyl]pipéridin-4-yl]-1,3-dihydro-2H-benzimidazol-2-one]: the Solubility in water entry is “pratiquement insoluble dans l'eau”.
